For test [1], the target named is BACE (the beta-secretase enzyme) (Mus musculus (Mouse), UniProt P56818). The test is described as follows: In vivo inhibition of beta-secretase in PDAPP mice (brain Abeta 1-x). Conditions: 3 hours, young female PDAPP mice, vs vehicle. As to the method: Several animal models, including mouse, rat, guinea pig, dog, and monkey, may be used to screen for inhibition of beta-secretase activity in vivo following compound treatment Animals used in this invention were transgenic PDAPP mice as described in Games et al., Nature 373, 523-527 (1995), which have been useful to analyze in vivo inhibition of Abeta production in the presence of inhibitory compounds. Two month old PDAPP mice are administered compound formulated in N-methylpyrolidone (Pharmasolve®) in water. Three hours following the administration of compound, animals are sacrificed, and brains are removed for analysis of Abeta fragments. (See Dovey, et al., Journal of Neurochemistry, 76, 173-181 (2001); and Johnson-Wood, et al., Proc. Natl. Acad. Sci. USA, 94, 1550-1555 (1997)).
Sequence of BACE (the beta-secretase enzyme) (P56818 46-501): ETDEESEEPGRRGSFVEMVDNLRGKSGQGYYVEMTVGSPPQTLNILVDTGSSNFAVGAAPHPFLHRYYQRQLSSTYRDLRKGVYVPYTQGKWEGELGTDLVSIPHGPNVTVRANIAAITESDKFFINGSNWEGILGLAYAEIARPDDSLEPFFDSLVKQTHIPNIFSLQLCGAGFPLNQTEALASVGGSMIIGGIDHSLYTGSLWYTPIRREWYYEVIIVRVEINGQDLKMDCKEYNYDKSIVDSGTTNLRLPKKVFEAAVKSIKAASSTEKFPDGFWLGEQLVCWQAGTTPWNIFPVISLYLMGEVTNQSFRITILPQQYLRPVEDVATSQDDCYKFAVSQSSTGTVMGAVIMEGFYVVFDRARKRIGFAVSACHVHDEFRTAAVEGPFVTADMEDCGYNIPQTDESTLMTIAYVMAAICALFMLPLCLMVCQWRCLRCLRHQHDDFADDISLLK
For standard in vivo pharmacology studies, animals are dosed with various concentrations of compound and compared to a vehicle-treated control group dosed at the same time. At the end of the test period, animals are sacrificed and brain tissues are analyzed for the presence of Abeta peptides by specific sandwich ELISA assays. “Abeta 1-x peptide” as used herein refers to the sum of Abeta species that begin with residue 1 and end with a C-terminus greater than residue 28. This detects the majority of Abeta species and is often called “total Abeta”.
Significant and dose-responsive reduction of total Abeta after oral administration of the compound of Example 8 is consistent with a mechanism of BACE (the beta-secretase enzyme) inhibition in vivo. […] As such, compounds of the present invention are efficacious inhibitors of BACE.

Test [2] deals with native endogenous human BACE1 (Homo sapiens (Human), UniProt P56817). Put plainly: HEK293Swe whole cell assay (Abeta ELISA). Conditions: HEK293/APP751sw cells. It counts as cell-based. Here is the method: For in vitro enzymatic and cellular assays, test compounds are prepared in DMSO to make up a 10 mM stock solution. The stock solution is serially diluted in DMSO to obtain a ten-point dilution curve with final compound concentrations ranging from […] to 1 nM in a 96-well round-bottom plate before conducting the in vitro enzymatic and whole cell assays. […]
Sequence of native endogenous human BACE1 (P56817 46-501): as the sequence (P56818 46-501) above, with S6P, I162V, I165L, T180S, A182V, V340I, A393L, H443Q counted along it
Cells (HEK293/APP751sw at 3.5×10^4 cells/well, containing 200 μL culture media, DMEM containing 10% FBS) are incubated at 37° C. for 4 to 24 h in the presence/absence of inhibitors (diluted in DMSO) at the desired concentration. At the end of the incubation, conditioned media are analyzed for evidence of beta-secretase activity, for example, by analysis of Abeta peptides. Total Abeta peptides (Abeta 1-x) are measured by a sandwich ELISA, using monoclonal 266 as a capture antibody and biotinylated 3D6 as reporting antibody. Alternatively, Abeta 1-40 and Abeta 1-42 peptides are measured by a sandwich ELISA, using monoclonal 2G3 as a capture antibody for Abeta 1-40, and monoclonal 21F12 as a capture antibody for Abeta 1-42. […]

In another test the target is human BACE1(1-460):Fc (Homo sapiens (Human), UniProt P56817). Put plainly: BACE1 FRET assay. The settings on record: purified recombinant human BACE1, FRET; Mean ± SEM. It counts as biochemical. Here is the method:
For in vitro enzymatic and cellular assays, test compounds are prepared in DMSO to make up a 10 mM stock solution.
This fusion protein of BACE1(1-460) and human Fc, named huBACE1:Fc, is constructed into the pJB02 vector. Human BACE1(1-460):Fc (huBACE1:Fc) is transiently expressed in HEK293 cells. 250 μg cDNA of each construct is mixed with Fugene 6 and added to 1 liter HEK293 cells. Four days after the transfection, conditioned media are harvested for purification. huBACE1:Fc is purified by Protein A chromatography. The enzyme is stored at −80° C. in small aliquots.
Serial dilutions of test compounds are prepared as described above. Compounds are further diluted 20× in KH2PO4 buffer. Ten μL of each dilution is added to each well on row A to H of a corresponding low protein binding black plate containing the reaction mixture (25 μL of 50 mM KH2PO4, pH 4.6, 1 mM TRITON® X-100, 1 mg/mL Bovine Serum Albumin, and 15 μM of FRET substrate) (See Yang, et. al., J. Neurochemistry, 91(6) 1249-59 (2004)). The content is mixed well on a plate shaker for 10 minutes. […] The RFU of the mixture at time 0 is recorded at excitation wavelength 355 nm and emission wavelength 460 nm, after brief mixing on a plate shaker. […] The RFU at the end of incubation is recorded with the same excitation and emission settings used at time 0. […]

Test [3] has as its target native, endogenous murine BACE1 (Mus musculus (Mouse), UniProt P56818). Put plainly: PDAPP primary neuronal assay (Abeta ELISA). It counts as cell-based. The settings on record: primary cortical neurons from PDAPP embryos. Here is the method:
For in vitro enzymatic and cellular assays, test compounds are prepared in DMSO to make up a 10 mM stock solution. […] A confirmatory whole cell assay is also run in primary neuronal cultures generated from PDAPP transgenic embryonic mice. […] After 2 days in vitro, culture media is replaced with serum free DMEM/F12 (1:1) containing B27 supplement and 2 μM (final) of Ara-C (Sigma, C1768). At day 5 in vitro, neurons are incubated at 37° C. for 24 h in the presence/absence of inhibitors (diluted in DMSO) at the desired concentration. At the end of the incubation, conditioned media are analyzed for evidence of beta-secretase activity, for example, by analysis of Abeta peptides. […] Both Abeta 1-40 and Abeta 1-42 ELISAs use biotinylated 3D6 as the reporting antibody. The concentration of Abeta released in the conditioned media following the compound treatment corresponds to the activity of BACE1 under such conditions.

The mark [4] stands for this setting: Abeta 1-40, read-out: PDAPP Neuron A-beta (1-40) ELISA IC50.
[5] abbreviates: Abeta 1-42, read-out: PDAPP Neuron A-beta (1-42) ELISA IC50.

We go through three compounds from US9328124B2, “BACE inhibitors” (Eli Lilly and Company, priority 2012, dated 2016).

Structures can show the parent of a compound that is named as a salt. Where two headings read alike, the source gives them in different places.

Sequence of native, endogenous murine BACE1 (P56818 46-501): as the sequence (P56818 46-501) above
Sequence of human BACE1(1-460):Fc (P56817 22-460): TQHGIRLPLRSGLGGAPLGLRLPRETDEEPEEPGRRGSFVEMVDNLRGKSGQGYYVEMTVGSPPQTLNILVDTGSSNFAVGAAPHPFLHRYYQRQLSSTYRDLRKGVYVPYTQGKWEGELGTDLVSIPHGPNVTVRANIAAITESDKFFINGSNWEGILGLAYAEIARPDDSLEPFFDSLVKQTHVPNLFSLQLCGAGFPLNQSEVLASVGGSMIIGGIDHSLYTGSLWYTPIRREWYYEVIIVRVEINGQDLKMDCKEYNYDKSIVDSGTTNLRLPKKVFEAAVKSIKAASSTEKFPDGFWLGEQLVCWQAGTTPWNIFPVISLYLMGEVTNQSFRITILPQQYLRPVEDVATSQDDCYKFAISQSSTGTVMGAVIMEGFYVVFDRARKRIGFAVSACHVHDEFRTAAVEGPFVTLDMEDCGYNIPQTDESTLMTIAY

As to `CC(C)(O)c1nc(N2C[C@H]3CSC(N)=N[C@@]3(c3cnccn3)C2)ncc1F.Cl` [Example 8, 2-[2-[(4aR,7aR)-2-Amino-7a-pyrazin-2-yl-4,4a,5,7-tetrahydropyrrolo[3,4-d][1,3]thiazin-6-yl]-5-fluoro-pyrimidin-4-yl]propan-2-ol hydrochloride], the results for the “Abeta 1-x peptide levels reduced in brain cortex” value in test [1] (10 mg/kg oral dose) and in test [1] (30 mg/kg oral dose) were “approximately 23%” and about 53%, respectively. In addition, the “Abeta 1-x peptide levels reduced in brain hippocampus” value in test [1] (10 mg/kg oral dose) is listed as “approximately 19%”; in test [1] (30 mg/kg oral dose) it was about 46%. In addition, the IC50 in test [2] (Abeta 1-40, read-out: HEK 293 Swe A-beta (1-40) ELISA IC50) was 0.242 µM; in test [2] (Abeta 1-42, read-out: HEK 293 Swe A-beta (1-42) ELISA IC50) it was 0.395 µM; at human BACE1(1-460):Fc, 0.105 µM; in test [3] (setting [4]), 0.455 µM; in test [3] (setting [5]), 0.412 µM.
For the compound `CC(C)(O)c1nc(N2C[C@H]3CSC(N)=N[C@@]3(c3ccc(F)cn3)C2)ncc1F` [Example 12, 2-[2-[(4aR,7aR)-2-Amino-7a-(5-fluoro-2-pyridyl)-4,4a,5,7-tetrahydropyrrolo[3,4-d][1,3]thiazin-6-yl]-5-fluoro-pyrimidin-4-yl]propan-2-ol hydrochloride], the figures for the IC50 in test [3] (setting [4]) and in test [3] (setting [5]) were 0.109 µM and 0.0831 µM, respectively.
For the compound `CC(C)(O)c1nc(N2C[C@H]3CSC(N)=N[C@@]3(c3cccnc3)C2)ncc1F` [Example 15, 2-[2-[(4aR,7aS)-2-Amino-7a-(3-pyridyl)-4,4a,5,7-tetrahydropyrrolo[3,4-d][1,3]thiazin-6-yl]-5-fluoro-pyrimidin-4-yl]propan-2-ol hydrochloride], the IC50 was found to be 0.0935 µM at human BACE1(1-460):Fc, 0.0982 µM in test [3] (setting [4]) and 0.0801 µM in test [3] (setting [5]).
